Data taken from patent US6132697A, “Radiopharmaceutical compositions capable of localizing at sites of thrombus” (G. D. Searle & Co., priority 1997, dated 2000).

Experiments:
[1] = Biodistribution in rat model (radioactivity in organs, excretion); format: in vivo, Sprague-Dawley rats
Description: This study was designed to evaluate the biodistribution pattern of the compound of Example 2 to determine the clearance profile from blood, route of excretion and in vivo stability of the complex by HPLC analysis of urine samples, in a rat model.
The compound of Example 2 was injected ([…], 1.5-3.5 mCi/mL) into Sprague-Dawley rats. Groups of three animals were sacrificed at the time points indicated below to determine the amount of radioactivity remained in the organs. Results: (to be filled)
The compound of Example 7 was injected ([…], 1.5-3.5 mCi/mL) into Sprague-Dawley rats. Groups of three animals were sacrificed at the time points indicated below to determine the amount of radioactivity (%ID/g) remaining in the organs.
The compound of Example 12 was injected into Sprague-Dawley rats according to the procedure outlined in Example 5. The amount of radioactivity present in the major excretionary organs at different time points (1, 4 and 24 hours) are given below.
The compound of Example 19 was injected into Sprageue-Dawley rats according to the procedure outlined earlier. The amount of radioactivity present in the major excretionary organs at different time points (1, 4 and 24 hours) are given below.
The compound of Example 26 was injected ([…], 1.5-3.5 mCi/mL) into Sprague-Dawley rats. Groups of three animals were sacrificed at the time points indicated below to determine the amount of radioactivity remaining in the organs.

GPIIb/IIIa receptors = biological target: T1, GPIIb/IIIa receptors (Homo sapiens, UniProt P05106+P08514); assay: ADP induced platelet aggregation inhibition assay in platelet rich plasma; format: cell-based; conditions: read-out: IC50 (half-maximal inhibition of platelet aggregation)
T1 construct: endogenous in cells; host or cells: platelets in platelet rich plasma from healthy volunteer donors
T1 sequence (P08514 32-887 limits assumed): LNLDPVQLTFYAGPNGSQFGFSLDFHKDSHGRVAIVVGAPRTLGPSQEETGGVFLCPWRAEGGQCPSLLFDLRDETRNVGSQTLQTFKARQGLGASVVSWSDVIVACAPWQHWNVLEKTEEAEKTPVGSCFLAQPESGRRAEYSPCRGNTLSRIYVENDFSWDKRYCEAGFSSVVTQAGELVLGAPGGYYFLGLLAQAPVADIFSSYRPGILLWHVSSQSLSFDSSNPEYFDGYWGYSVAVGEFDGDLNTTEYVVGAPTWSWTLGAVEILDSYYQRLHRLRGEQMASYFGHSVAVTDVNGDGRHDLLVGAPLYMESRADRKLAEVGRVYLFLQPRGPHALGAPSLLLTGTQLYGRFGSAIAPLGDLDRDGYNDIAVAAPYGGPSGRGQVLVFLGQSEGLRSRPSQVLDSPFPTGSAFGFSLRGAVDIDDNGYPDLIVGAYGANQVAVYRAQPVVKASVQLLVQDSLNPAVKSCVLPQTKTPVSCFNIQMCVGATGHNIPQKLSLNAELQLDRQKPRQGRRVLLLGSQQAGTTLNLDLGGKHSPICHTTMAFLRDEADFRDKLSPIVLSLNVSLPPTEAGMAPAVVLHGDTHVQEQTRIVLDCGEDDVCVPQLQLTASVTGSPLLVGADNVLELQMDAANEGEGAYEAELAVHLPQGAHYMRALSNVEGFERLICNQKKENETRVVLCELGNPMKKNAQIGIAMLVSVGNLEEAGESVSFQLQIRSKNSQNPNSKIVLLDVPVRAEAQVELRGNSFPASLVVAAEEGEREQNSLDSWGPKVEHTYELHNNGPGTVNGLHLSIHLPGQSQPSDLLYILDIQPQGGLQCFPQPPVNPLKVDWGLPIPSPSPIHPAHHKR
T1 sequence (P08514 891-1039 partner limits assumed): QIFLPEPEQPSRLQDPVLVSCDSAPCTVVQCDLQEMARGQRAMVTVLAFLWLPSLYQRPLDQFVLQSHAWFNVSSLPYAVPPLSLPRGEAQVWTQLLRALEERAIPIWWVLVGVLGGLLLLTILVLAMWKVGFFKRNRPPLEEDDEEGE
T1 sequence (P05106 27-788): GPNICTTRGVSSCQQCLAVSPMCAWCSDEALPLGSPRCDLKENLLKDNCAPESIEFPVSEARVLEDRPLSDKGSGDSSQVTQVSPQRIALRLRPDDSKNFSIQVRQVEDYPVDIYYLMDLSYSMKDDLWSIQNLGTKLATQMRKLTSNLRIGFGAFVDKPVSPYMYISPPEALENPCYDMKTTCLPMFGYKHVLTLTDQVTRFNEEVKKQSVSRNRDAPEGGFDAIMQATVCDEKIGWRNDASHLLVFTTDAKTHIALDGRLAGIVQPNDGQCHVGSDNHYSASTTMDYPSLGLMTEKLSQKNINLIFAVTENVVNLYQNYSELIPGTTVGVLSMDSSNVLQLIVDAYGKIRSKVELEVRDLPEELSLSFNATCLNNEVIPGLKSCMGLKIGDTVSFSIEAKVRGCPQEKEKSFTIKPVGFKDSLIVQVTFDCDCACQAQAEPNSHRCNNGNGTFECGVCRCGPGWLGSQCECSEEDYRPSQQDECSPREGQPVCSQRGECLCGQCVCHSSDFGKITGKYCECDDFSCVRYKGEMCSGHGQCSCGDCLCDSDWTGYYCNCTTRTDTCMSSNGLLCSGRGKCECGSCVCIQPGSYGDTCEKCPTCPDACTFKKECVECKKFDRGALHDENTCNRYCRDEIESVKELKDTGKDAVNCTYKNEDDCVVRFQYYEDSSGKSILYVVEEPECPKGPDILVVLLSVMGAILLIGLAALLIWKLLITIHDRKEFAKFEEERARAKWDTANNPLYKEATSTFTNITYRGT
Description: This Example describes Platelet Aggregation Inhibition Assays of the compound of Example 2 to illustrate that the compound binds to GPIIb/IIIa receptors when radiolabelled.
Healthy aspirin free donors were randomly selected from a pool of volunteers. The harvesting of platelet rich plasma and subsequent ADP induced platelet aggregation assays were performed as described in Zucker, M. B. "Platelet Aggregation Measured by the Photometric Method", Methods in Enzymology 169 (1989):117-133. Standard venipuncture techniques using butterfly allowed the withdrawal of 45 mL of whole blood into a 60 mL syringe containing 5 mL 3.8% trisodium citrate. Following thorough mixing in the syringe, the anti-coagulated whole blood was transferred to a 50 mL conical polyethylene tube. The blood was centrifuged at room temperature for 12 minutes at 200xg to sediment non-platelet cells. Platelet poor plasma was obtained from a second centrifugation of the remaining blood at 2000xg for 15 minutes. Platelet counts are typically 300,000 to 500,000 per microliter. […] Aggregation was recorded for 3 minutes in a Payton dual channel aggregometer (Payton Scientific, Buffalo, N.Y.). […] The compounds were tested in duplicate and half-maximal inhibition (IC50) was calculated graphically from the dose response curve. […]

[2] = test system: pulmonary emboli (PE) and/or deep vein thrombus (DVT); assay: Canine model for pulmonary embolism / deep vein thrombus (embolization coils); format: in vivo, dog; conditions: sacrifice at 3 hours
Description: These studies are designed to serve as a preliminary screen of various radiolabeled pharmaceuticals for the purpose of imaging pulmonary emboli (PE) and/or deep vein thrombus (DVT).
Procedure: The dog is first anesthetized with an intravenous injection of sodium pentobarbital (30 mg/kg). An IV catheter is placed into the jugular vein and advanced to the pulmonary artery. Visualization of the catheter placement is facilitated using fluoroscopy. Embolization coils of various sizes (3-8 mm) are next released via the catheter using the appropriate guide wire, and localization of the coils is followed by fluoroscopy. After a satisfactory number of coils (3-5) have been placed and visualized, the catheter is removed and the vein ligated. The formation of a deep vein thrombus (DVT) in the saphenous vein is facilitated by the placement of a 16 gauge needle into the vein followed by the passage of a 5 mm embolization coil through the needle directly into the vein.
IV injection (cephalic vein) of the radiolabeled test article occurs approximately 30-45 minutes post placement of the embolization coils. Approximate activity injected is 2.5-3.5mCi. Beginning at 30 minutes post injection and continuing for several hours at 30 minute intervals, the animal is scintigraphed in both the lateral and supine positions.
At the conclusion of the imaging portion of the study (3 hours) the animal is sacrificed, and selected tissues removed for scintillation counting. The coils are located, removed and quantitated for uptake of the radiotracer. From these values is determined the target:non-target ratios and blood clearance of the test article.
The compound of claim 19 was administered to a canine according to the general protocol described in Example 16.

Compound | radioactivity in organ: Blood ([1]; 1 hour) | radioactivity in organ: Kidney ([1]; 1 hour) | radioactivity in organ: Liver ([1]; 1 hour) | radioactivity in organ: Sml. Int & Contents ([1]; 1 hour) | radioactivity in organ: Blood ([1]; 4 hours) | radioactivity in organ: Kidney ([1]; 4 hours) | radioactivity in organ: Liver ([1]; 4 hours) | radioactivity in organ: Sml. Int & Contents ([1]; 4 hours) | radioactivity in organ: Blood ([1]; 24 hours) | radioactivity in organ: Kidney ([1]; 24 hours) | radioactivity in organ: Liver ([1]; 24 hours) | radioactivity in organ: Sml. Int & Contents ([1]; 24 hours) | % ID excreted in the feces at 24 hr. [1] | % ID excreted in the urine at 24 hr. [1] | IC50 (GPIIb/IIIa receptors) | also measured
CN(C)CC[N]1C(=O)C(CCC(=O)O)[N]2C(=O)C(CCCC(=O)NCCCCC(NC(=O)C(CC(=O)O)NC(=O)CCC(=O)Nc3ccc(C(=N)N)cc3)C(=O)O)[N]3C(=O)C[S][99Tc-]132=[O] (centres unmarked) [Example 26] | 0.067 % ID/g | 0.628 % ID/g | 0.043 % ID/g | 0.206 % ID/g | 0.011 % ID/g | 0.536 % ID/g | 0.015 % ID/g | 0.031 % ID/g | 0.007 % ID/g | 0.227 % ID/g | 0.014 % ID/g | 0.009 % ID/g | 16.277 % ID | 54.708 % ID | – | –
CN(C)CCNC(=O)C(CCC(=O)O)NC(=O)C(CCCCNC(=O)CCNC(=O)C(CC(=O)O)NC(=O)CCC(=O)Nc1ccc(C(=N)N)cc1)NC(=O)CSC1CCCCO1 [Example 18, ABAS-L-Asp-β-Ala-ε-L-Lys(α-S-THP-mercaptoacetyl)-Glu-dme] | – | – | – | – | – | – | – | – | – | – | – | – | – | – | 490 nM | –
CN(C)CC[N]1C(=O)C(CCC(=O)O)[N]2C(=O)C(CCCC(=O)NCCCCC(NC(=O)C(CC(=O)O)NC(=O)CCC(=O)Nc3ccc(C(=N)N)cc3)C(=O)O)[N]3C(=O)C[S][TcH]132=[O] (centres unmarked) [Example 26] | – | – | – | – | – | – | – | – | – | – | – | – | – | – | 290 nM | –
CN(C)CC[N]1C(=O)C(CCC(=O)O)[N]2C(=O)C(CCCCNC(=O)CCNC(=O)C(CC(=O)O)NC(=O)CCC(=O)Nc3ccc(C(=N)N)cc3)[N]3C(=O)C[S][99Tc-]132=[O] (centres unmarked) [Example 19] | 0.067 % ID/g | 0.864 % ID/g | 0.158 % ID/g | 0.645 % ID/g | 0.011 % ID/g | 0.520 % ID/g | 0.024 % ID/g | 0.015 % ID/g | 0.004 % ID/g | 0.241 % ID/g | 0.009 % ID/g | 0.002 % ID/g | 32.758 % ID | 41.217 % ID | – | % ID/g ([2]; Blood): 0.0018 % ID/g; % ID/g ([2]; Clot 1 (DVT)): 0.0828 % ID/g; Clot/blood ([2]; Clot 1 (DVT)): 43; % ID/g ([2]; Clot 2 (PE)): 0.0114 % ID/g; Clot/blood ([2]; Clot 2 (PE)): 6; % ID/g ([2]; Clot 3 (PE)): 0.125 % ID/g; Clot/blood ([2]; Clot 3 (PE)): 65; % ID/g ([2]; Clot 4 (PE)): 0.142 % ID/g; Clot/blood ([2]; Clot 4 (PE)): 74; % ID/g ([2]; Clot 5 (PE)): 0.1232 % ID/g; Clot/blood ([2]; Clot 5 (PE)): 64
